“And” between values parts separate entries of the source, which are not always exact repeats. Equal values may be shown once. Inconclusive results and toxic doses are left out. No stated cut-off is given here; in the data, active means T/C of 150% or more; inactive means T/C below 125%.
System: L1210 leukemia ip in BDF1 mice, survival T/C
Test: NCI In Vivo Anticancer Drug Screen. Data for tumor model L1210 Leukemia (intraperitoneal) in B6D2F1 (BDF1) mice
Details: endpoint: mean survival time, higher = longer survival
Summary of the method: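 Antitumor effect is assessed in tumor-bearing animals. Survival in the compound arm is compared with a vehicle-dosed control arm and expressed as their quotient.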

[1] = dose: 100.0 mg/kg/injection, schedule: Q01DX009 (ip), vehicle: Klucel (hydroxypropylcellulose) (HPC)
[2] = dose: 100.0 mg/kg/injection, schedule: Q04DX003 (ip), vehicle: Klucel (hydroxypropylcellulose) (HPC)
[3] = dose: 200.0 mg/kg/injection, schedule: Q01DX009 (ip), vehicle: Klucel (hydroxypropylcellulose) (HPC)
[4] = dose: 200.0 mg/kg/injection, schedule: Q04DX003 (ip), vehicle: Klucel (hydroxypropylcellulose) (HPC)
[5] = dose: 400.0 mg/kg/injection, schedule: Q01DX009 (ip), vehicle: Klucel (hydroxypropylcellulose) (HPC)
[6] = dose: 400.0 mg/kg/injection, schedule: Q04DX003 (ip), vehicle: Klucel (hydroxypropylcellulose) (HPC)
[7] = dose: 100.0 mg/kg/injection, schedule: Q01DX001 (ip), vehicle: saline
[8] = dose: 200.0 mg/kg/injection, schedule: Q01DX001 (ip), vehicle: saline
[9] = dose: 400.0 mg/kg/injection, schedule: Q01DX001 (ip), vehicle: saline
[10] = dose: 100.0 mg/kg/injection, schedule: Q01DX009 (ip), vehicle: saline
[11] = dose: 200.0 mg/kg/injection, schedule: Q01DX009 (ip), vehicle: saline
[12] = dose: 100.0 mg/kg/injection, schedule: Q01DX009 (ip), vehicle: saline with Tween-80

Measured: T/C

NC(N)=N/N=C(/CCC(=O)O)C(=O)O
inactive: dose: 15.0 mg/kg/injection, schedule: Q01DX Z (ip), vehicle: carboxymethylcellulose (CMC) 100 % of control | dose: 30.0 mg/kg/injection, schedule: Q01DX Z (ip), vehicle: carboxymethylcellulose (CMC) 107 % of control | dose: 60.0 mg/kg/injection, schedule: Q01DX Z (ip), vehicle: carboxymethylcellulose (CMC) 100 % of control and 104 % of control | dose: 60.0 mg/kg/injection, schedule: Q01DX Z (oral), vehicle: carboxymethylcellulose (CMC) 104 % of control | dose: 60.0 mg/kg/injection, schedule: Q01DX Z (oral), vehicle: saline 95 % of control | dose: 120.0 mg/kg/injection, schedule: Q01DX Z (ip), vehicle: carboxymethylcellulose (CMC) 101 % of control and 106 % of control | dose: 120.0 mg/kg/injection, schedule: Q01DX Z (oral), vehicle: carboxymethylcellulose (CMC) 98 % of control | dose: 120.0 mg/kg/injection, schedule: Q01DX Z (oral), vehicle: saline 96 % of control | dose: 240.0 mg/kg/injection, schedule: Q01DX Z (ip), vehicle: carboxymethylcellulose (CMC) 98 % of control | dose: 240.0 mg/kg/injection, schedule: Q01DX Z (oral), vehicle: carboxymethylcellulose (CMC) 107 % of control | dose: 240.0 mg/kg/injection, schedule: Q01DX Z (oral), vehicle: saline 98 % of control | dose: 480.0 mg/kg/injection, schedule: Q01DX Z (oral), vehicle: carboxymethylcellulose (CMC) 98 % of control | dose: 480.0 mg/kg/injection, schedule: Q01DX Z (oral), vehicle: saline 98 % of control | dose: 960.0 mg/kg/injection, schedule: Q01DX Z (oral), vehicle: carboxymethylcellulose (CMC) 98 % of control and 113 % of control | dose: 960.0 mg/kg/injection, schedule: Q01DX Z (oral), vehicle: saline 101 % of control

O=C(NC(=O)c1ccc([N+](=O)[O-])cc1)OCCCl
inactive: dose: 100.0 mg/kg/injection, schedule: Q01DX001 (ip), vehicle: Klucel (hydroxypropylcellulose) (HPC) 92 % of control | dose: 200.0 mg/kg/injection, schedule: Q01DX001 (ip), vehicle: Klucel (hydroxypropylcellulose) (HPC) 97 % of control | dose: 400.0 mg/kg/injection, schedule: Q01DX001 (ip), vehicle: Klucel (hydroxypropylcellulose) (HPC) 105 % of control

CC(=O)O[C@H]1CC[C@H]2[C@@H]3[C@H](C)CC4=CC(=O)CCC4[C@H]3CC[C@]12C (some centres undefined)
inactive: dose: 100.0 mg/kg/injection, schedule: Q01DX001 (sc), vehicle: steriod suspending solution 98 % of control | dose: 200.0 mg/kg/injection, schedule: Q01DX001 (sc), vehicle: steriod suspending solution 100 % of control | dose: 400.0 mg/kg/injection, schedule: Q01DX001 (sc), vehicle: steriod suspending solution 102 % of control

Cc1ccc(/C(=N\N=C(N)N)C2CC2)c(C)c1
inactive: dose: 15.0 mg/kg/injection, schedule: Q01DX Z (ip), vehicle: methylcellulose (MC) 89 % of control | dose: 30.0 mg/kg/injection, schedule: Q01DX Z (ip), vehicle: methylcellulose (MC) 98 % of control | dose: 30.0 mg/kg/injection, schedule: Q01DX Z (oral), vehicle: methylcellulose (MC) 103 % of control | dose: 60.0 mg/kg/injection, schedule: Q01DX Z (ip), vehicle: methylcellulose (MC) 95 % of control | dose: 60.0 mg/kg/injection, schedule: Q01DX Z (oral), vehicle: methylcellulose (MC) 97 % of control | dose: 240.0 mg/kg/injection, schedule: Q01DX Z (oral), vehicle: methylcellulose (MC) 86 % of control

CN(C)c1ccc(C=O)cc1Br
inactive: [1] 98 % of control | [2] 100 % of control | [3] 96 % of control | [4] 103 % of control | [5] 96 % of control | [6] 101 % of control

Cc1ccc(NCCO)c2c(=O)c3ccccc3sc12
inactive: [7] 101 % of control | [8] 101 % of control | [9] 89 % of control

Cc1cccc[n+]1CCC(N)=O
inactive: dose: 6.25 mg/kg/injection, schedule: Q01DX009 (ip), vehicle: saline 97 % of control | dose: 12.5 mg/kg/injection, schedule: Q01DX009 (ip), vehicle: saline 97 % of control | dose: 25.0 mg/kg/injection, schedule: Q01DX009 (ip), vehicle: saline 108 % of control

CCCCCCCCCCCCC(CC(=O)O)C(=O)N(C)CC(O)C(O)C(O)C(O)CO (centres undefined)
inactive: dose: 50.0 mg/kg/injection, schedule: Q01DX009 (ip), vehicle: saline 106 % of control | [10] 100 % of control | [11] 110 % of control

O=S(=O)(/C(=C\c1ccccc1)c1ccccc1)c1ccccc1
inactive: [7] 90 % of control | [8] 93 % of control | [9] 93 % of control

CC(C)CCC[C@@H](C)[C@H]1CC[C@H]2[C@@H]3CC=C4C[C@@H](O)CC[C@]4(C)[C@H]3CC[C@]12C
inactive: [7] 92 % of control | [1] 94 % of control | [2] 97 % of control | [8] 95 % of control | [3] 91 % of control | [4] 89 % of control | [9] 92 % of control | [5] 92 % of control | [6] 94 % of control

CCOC(=O)C(NC(=O)NC)C(=O)OCC
inactive: [1] 98 % of control | [2] 102 % of control | [3] 93 % of control | [4] 98 % of control | [5] 102 % of control | [6] 96 % of control

COC(=O)Cc1oc(=O)n(-c2ccccc2)c(=O)c1C(=O)OC
inactive: dose: 12.5 mg/kg/injection, schedule: Q04DX002 (ip), vehicle: gum acacia 94 % of control | dose: 25.0 mg/kg/injection, schedule: Q04DX002 (ip), vehicle: gum acacia 116 % of control | dose: 50.0 mg/kg/injection, schedule: Q04DX002 (ip), vehicle: gum acacia 108 % of control

C[N+](C)(C)CC1(COC(=O)C(O)(c2ccccc2)c2ccccc2)CCC1
inactive: dose: 12.0 mg/kg/injection, schedule: Q01DX001 (ip), vehicle: Klucel (hydroxypropylcellulose) (HPC) 100 % of control | dose: 12.0 mg/kg/injection, schedule: Q04DX003 (ip), vehicle: Klucel (hydroxypropylcellulose) (HPC) 94 % of control | dose: 25.0 mg/kg/injection, schedule: Q01DX001 (ip), vehicle: Klucel (hydroxypropylcellulose) (HPC) 98 % of control | dose: 25.0 mg/kg/injection, schedule: Q04DX003 (ip), vehicle: Klucel (hydroxypropylcellulose) (HPC) 86 % of control | dose: 50.0 mg/kg/injection, schedule: Q01DX001 (ip), vehicle: Klucel (hydroxypropylcellulose) (HPC) 96 % of control | dose: 50.0 mg/kg/injection, schedule: Q04DX003 (ip), vehicle: Klucel (hydroxypropylcellulose) (HPC) 86 % of control

COc1ccc(C(=O)c2c(C(=O)O)ccc3ccccc23)cc1
inactive: [12] 104 % of control | dose: 100.0 mg/kg/injection, schedule: Q04DX003 (ip), vehicle: other 101 % of control | dose: 200.0 mg/kg/injection, schedule: Q01DX009 (ip), vehicle: saline with Tween-80 95 % of control | dose: 200.0 mg/kg/injection, schedule: Q04DX003 (ip), vehicle: other 100 % of control | dose: 400.0 mg/kg/injection, schedule: Q01DX009 (ip), vehicle: saline with Tween-80 106 % of control | dose: 400.0 mg/kg/injection, schedule: Q04DX003 (ip), vehicle: other 100 % of control

Cc1ccc(S(=O)(=O)OCC(C)C2CCC3C4CC=C5CC(Cl)CCC5(C)C4CCC23C)cc1 (centres undefined)
inactive: dose: 100.0 mg/kg/injection, schedule: Q01DX001 (ip), vehicle: saline with Tween-80 91 % of control | dose: 200.0 mg/kg/injection, schedule: Q01DX001 (ip), vehicle: saline with Tween-80 102 % of control | dose: 400.0 mg/kg/injection, schedule: Q01DX001 (ip), vehicle: saline with Tween-80 94 % of control

CN(C)c1ccc(/C=N/NC(=O)CNC(=O)c2ccc(Cl)cc2Cl)cc1
inactive: dose: 50.0 mg/kg/injection, schedule: Q01DX009 (ip), vehicle: saline with Tween-80 86 % of control | [12] 88 % of control

Cc1ccc(NC(=S)NC(Cc2ccccc2)c2ccccc2)c(C)c1 (centres undefined)
inactive: [1] 106 % of control | [2] 98 % of control | [3] 87 % of control | [4] 96 % of control | [5] 101 % of control | [6] 98 % of control

CC(=Nc1cccc(C)c1C)c1c(O)cc(C)oc1=O
inactive: [10] 108 % of control | [11] 97 % of control | dose: 400.0 mg/kg/injection, schedule: Q01DX009 (ip), vehicle: saline 103 % of control
